Values quoted from earlier work, collected in US8846744B2, “Pharmaceutical compositions of co-crystals of tramadol and coxibs” (Laboratorios del Dr. Esteve, S.A., priority 2010, dated 2014).

## Cc1ccc(-c2cc(C(F)(F)F)nn2-c2ccc(S(N)(=O)=O)cc2)cc1 [Celecoxib, 4-[5-(4-methylphenyl)-3-(trifluoromethyl)pyrazol-1-yl]benzenesulfonamide]
  solubility in water: practically insoluble
